Laboratory results published in paper PMC10762035, “Molecular basis of human trace amine-associated receptor 1 activation” (Nature Communications, 2024).
Substitutions are numbered along the chain they refer to. “And” between values parts separate entries of the source, which are not always exact repeats. Identical values can stand only once.

Legend:
hTA1 T194A = biological target: T1, hTA1 T194A (Homo sapiens, UniProt Q96RJ0, T194A); experiment: GloSensor cAMP accumulation assay, T194A mutant; conditions: for cAMP accumulation response, individual replicate values of the concentration-response curve: hTA1 T194A, log[Agonist], Supplementary Figure 5 source data
T1 sequence (Q96RJ0 1-339 T194A): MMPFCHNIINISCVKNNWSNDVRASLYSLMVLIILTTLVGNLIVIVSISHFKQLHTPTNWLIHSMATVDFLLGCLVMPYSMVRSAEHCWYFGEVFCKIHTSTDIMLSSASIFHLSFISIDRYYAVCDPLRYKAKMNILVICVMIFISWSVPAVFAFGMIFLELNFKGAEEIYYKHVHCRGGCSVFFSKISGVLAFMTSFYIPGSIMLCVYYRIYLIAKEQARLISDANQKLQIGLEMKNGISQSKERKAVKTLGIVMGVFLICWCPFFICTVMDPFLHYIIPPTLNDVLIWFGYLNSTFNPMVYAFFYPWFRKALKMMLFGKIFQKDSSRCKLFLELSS

hTA1 b2N = biological target: T2, hTA1 b2N (Homo sapiens, UniProt Q96RJ0); experiment: GloSensor cAMP accumulation assay, b2N construct; assay type: cell-based; conditions: b2N, n=2
T2 construct: read by me as the first 25 residues of β2AR (N); expressed in transfected cells; host or cells: HEK293T

hTA1 C88/178S = biological target: T3, hTA1 C88/178S (Homo sapiens, UniProt Q96RJ0, C178S/C88S); experiment: GloSensor cAMP accumulation assay, C88S/C178S double mutant; assay type: cell-based; conditions: for Normalized Luminescence Counts (N=2): log[Compound], single replicate values
T3 construct: expressed in transfected cells; host or cells: HEK293T
T3 sequence (Q96RJ0 1-339 C88S/C178S): T1 sequence (Q96RJ0 1-339 T194A) with C88S, C178S, A194T

hTA1 W264F = biological target: T4, hTA1 W264F (Homo sapiens, UniProt Q96RJ0, W264F); experiment: GloSensor cAMP accumulation assay, W264F mutant; assay type: cell-based;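 also: cells transiently transfected with receptor plus GloSensor, luminescence read 30 min after agonist addition at room temperature, concentration-response curves fitted by log(agonist) vs response regression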
T4 construct: expressed in transfected cells; host or cells: HEK293T
T4 sequence (Q96RJ0 1-339 W264F): T1 sequence (Q96RJ0 1-339 T194A) with A194T, W264F

hTA1 C178S = biological target: T5, hTA1 C178S (Homo sapiens, UniProt Q96RJ0, C178S); experiment: GloSensor cAMP accumulation assay, C178S mutant; assay type: cell-based; conditions: for C178S - Normalized Luminescence Counts (N=2): log[Compound], single replicates
T5 construct: expressed in transfected cells; host or cells: HEK293T
T5 sequence (Q96RJ0 1-339 C178S): T1 sequence (Q96RJ0 1-339 T194A) with C178S, A194T

[1] = C88S, C178S, each row is one independent experiment, 3 replicates
[2] = C178S, each row one experiment (N=2), 3 replicates

T2 sequence (Q96RJ0 with tags, fused parts or gaps): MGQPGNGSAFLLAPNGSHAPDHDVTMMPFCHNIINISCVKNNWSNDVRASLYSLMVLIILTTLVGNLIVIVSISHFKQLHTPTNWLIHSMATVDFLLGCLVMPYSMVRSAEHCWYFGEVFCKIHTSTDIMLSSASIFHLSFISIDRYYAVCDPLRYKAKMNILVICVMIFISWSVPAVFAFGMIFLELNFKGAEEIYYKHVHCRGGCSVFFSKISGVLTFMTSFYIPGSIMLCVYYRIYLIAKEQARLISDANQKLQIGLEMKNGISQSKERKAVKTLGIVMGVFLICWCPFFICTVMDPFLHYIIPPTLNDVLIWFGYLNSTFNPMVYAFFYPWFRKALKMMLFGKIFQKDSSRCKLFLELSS

## NCCc1ccc(Oc2ccc(O)cc2)c(I)c1 [T1AM, 3-iodothyronamine]
hTA1 T194A; T149A (so in the source), single experiments (3 replicates each)
  pEC50 values, Mean: 6.398 and 6.629 and 6.1942
hTA1 T194A; T149A (so in the source), single experiments (3 replicates each), β-PEA = 100
  Emax values, Mean: 79.7491 and 146.858 and 73.3036
hTA1 T194A; T194A
  EC50: 235 nM
  Span ± SEM (Emax normalized to β-PEA): 99.97
  pEC50 ± SEM: 6.41 ± 0.14
hTA1 T194A; M = -7.522
  cAMP accumulation response, individual replicate values of the concentration-response curve: 6.402 and 2.253 and 5.81 and 6.799 and 11.9487 and 8.441
hTA1 T194A; M = -8
  cAMP accumulation response, individual replicate values of the concentration-response curve: 0.08035 and -1.303 and -0.1172 and 2.714 and 2.536 and 3.069
hTA1 T194A; M = -8.522
  cAMP accumulation response, individual replicate values of the concentration-response curve: -1.5 and -0.9074 and -0.5123 and 0.09457 and 0.1834 and 0.5385
hTA1 T194A; M = -9
  cAMP accumulation response, individual replicate values of the concentration-response curve: -0.9074 and -1.303 (2×) and -1.015 and -1.326 and -0.3494
hTA1 T194A; M = -9.522
  cAMP accumulation response, individual replicate values of the concentration-response curve: -2.093 (3×) and -0.6158 and -1.149 and -0.527
hTA1 T194A; M = -10
  cAMP accumulation response, individual replicate values of the concentration-response curve: -1.698 and -1.303 and -1.105 and -0.749 (2×) and -0.4382
hTA1 T194A; M = -10.522
  cAMP accumulation response, individual replicate values of the concentration-response curve: -1.5 and -1.303 and -1.698 and -0.8822 and -1.326 and -0.971
hTA1 T194A; M = -11
  cAMP accumulation response, individual replicate values of the concentration-response curve: -1.303 and -0.9074 and -0.3148 and -0.4826 and -0.9266 and 0.5385
hTA1 T194A; M = -11.522
  cAMP accumulation response, individual replicate values of the concentration-response curve: -1.303 (2×) and -0.9074 and -0.4382 and -0.7046 and -0.3938
hTA1 T194A; M = -12
  cAMP accumulation response, individual replicate values of the concentration-response curve: -0.5123 and -1.105 and -1.5 and -0.4826 and -0.5714 and -0.6158
hTA1 T194A; M = -12.522
  cAMP accumulation response, individual replicate values of the concentration-response curve: -0.3148 (2×) and -0.5123 and -0.5714 (2×) and -0.305
hTA1 b2N
  Span ± SEM (Emax normalized to β-PEA): 80.48
  pEC50 ± SEM: 6.65 ± 0.05
hTA1 b2N; read-out: EC50
  EC50: 224 nM
hTA1 C88/178S; C88/178S, n=2
  Span ± SEM (Emax normalized to β-PEA): 98.9 ± 13.16
  pEC50 ± SEM: 5.96 ± 0.05
hTA1 C88/178S; C88/178S, n=2, read-out: EC50
  EC50: 1090 nM
hTA1 C88/178S; [1]
  pEC50 values, Mean: 6.084 and 5.841
  ΔEmax values (each mutant value - WT average), Mean: 15.2915 and 41.6133
  ΔpEC50 values (each mutant value - WT average), Mean: -0.04547 and -0.2881
hTA1 C88/178S; C88S, C178S, M = -5
  Normalized Luminescence Counts (N=2): 73.2176 and 97.3588 and 72.5957 and 103.925 and 90.4821 and 104.378
hTA1 C88/178S; C88S, C178S, M = -5.522
  Normalized Luminescence Counts (N=2): 67.1681 and 64.6805 and 64.737 and 67.222 and 55.8941 and 86.253
hTA1 C88/178S; C88S, C178S, M = -6
  Normalized Luminescence Counts (N=2): 53.4297 and 44.4403 and 51.5074 and 51.9671 and 38.3735 and 50.6077
hTA1 C88/178S; C88S, C178S, M = -6.522
  Normalized Luminescence Counts (N=2): 23.5782 and 23.1825 and 20.8079 and 20.0978 and 14.6604 and 27.0456
hTA1 C88/178S; C88S, C178S, M = -7
  Normalized Luminescence Counts (N=2): 11.3097 and 9.048 and 12.1012 and 6.655 and 6.504 and 10.7333
hTA1 C88/178S; C88S, C178S, M = -7.522
  Normalized Luminescence Counts (N=2): 2.433 and 2.8292 and 3.225 and 0.6137 and -1.652 and -0.1415
hTA1 C88/178S; C88S, C178S, M = -8
  Normalized Luminescence Counts (N=2): 0.6808 and 0.7373 and 1.19 and -0.1415 and -0.2925 and 0.9158
hTA1 C88/178S; C88S, C178S, M = -8.522
  Normalized Luminescence Counts (N=2): 0.7373 and 0.7939 and 0.285 and -1.501 and 0.1606 and -0.4436
hTA1 C88/178S; C88S, C178S, M = -9
  Normalized Luminescence Counts (N=2): 0.4547 (2×) and 1.981 and -1.199 and -2.558 and -1.652
hTA1 C88/178S; C88S, C178S, M = -9.522
  Normalized Luminescence Counts (N=2): 0.285 (2×) and 0.2285 and -0.4436 and -2.105 and -1.199
hTA1 C88/178S; C88S, C178S, M = -10
  Normalized Luminescence Counts (N=2): 1.19 and 0.0589 and 2.2073 and 0.4627 and 0.3116 and -0.1415
hTA1 C88/178S; C88S, C178S, M = -10.522
  Normalized Luminescence Counts (N=2): 1.077 and 0.285 and 1.1331 and 0.1606 and -2.86 and -1.652
hTA1 C88/178S; C88S, C178S, M = -11
  Normalized Luminescence Counts (N=2): 1.529 and 0.9635 and 0.2285 and -1.048 and -1.35 and -1.652
hTA1 C88/178S; C88S, C178S, M = -11.522
  Normalized Luminescence Counts (N=2): 1.19 and 1.246 and 0.4547 and -0.5946 and -1.199 (2×)
hTA1 C88/178S; C88S, C178S, M = -12
  Normalized Luminescence Counts (N=2): 0.3981 and 0.172 and 1.981 and -1.501 and -1.048 and -0.2925
hTA1 C88/178S; C88S, C178S, M = -12.522
  Normalized Luminescence Counts (N=2): 1.1331 and 2.773 and 1.19 and -0.1415 and -1.35 and -0.8967
hTA1 C88/178S; C88S, C178S, normalized (β-PEA = 100), each row is one independent experiment, 3 replicates
  Emax values, Mean: 85.7378 and 112.06
hTA1 W264F; W246F mutant (so in the source) minus WT average
  ΔEmax values (each mutant value - WT average): -30.8369
hTA1 W264F; W246F mutant (so in the source), β-PEA = 100, each line an independent experiment, 3 replicates
  Emax values, Mean: 17.7915
hTA1 W264F; W264F, n=2
  Span ± SEM (Emax normalized to β-PEA): 28.7 ± 10.91
  pEC50 ± SEM: 4.95 ± 0.97
hTA1 W264F; W264F, n=2, read-out: EC50
  EC50: 11300 nM
hTA1 C178S; [2]
  pEC50 values, Mean: 5.899 and 6.116
  ΔpEC50 values (each mutant value - WT average), Mean: -0.2302 and -0.01318
hTA1 C178S; C178S, n=2
  Span ± SEM (Emax normalized to β-PEA): 86.82 ± 7.63
  pEC50 ± SEM: 6.01 ± 0.05
hTA1 C178S; C178S, n=2, read-out: EC50
  EC50: 983 nM
hTA1 C178S; C178S, β-PEA = 100, each row one experiment (N=2), 3 replicates
  Emax values, Mean: 79.1908 and 94.4471
hTA1 C178S; M = -5
  C178S - Normalized Luminescence Counts (N=2): 73.1003 and 72.1657 and 63.8478 and 81.3738 and 108.419 and 79.3694
hTA1 C178S; M = -5.522
  C178S - Normalized Luminescence Counts (N=2): 52.0253 and 55.0627 and 58.1468 and 73.8647 and 83.1688 and 53.1323
hTA1 C178S; M = -6
  C178S - Normalized Luminescence Counts (N=2): 32.3989 and 32.726 and 30.2026 and 62.7356 and 57.5001 and 49.3328
hTA1 C178S; M = -6.522
  C178S - Normalized Luminescence Counts (N=2): 18.0529 and 16.5576 and 18.9875 and 30.7245 and 26.2071 and 22.4375
hTA1 C178S; M = -7
  C178S - Normalized Luminescence Counts (N=2): 4.642 and 4.221 and 4.735 and 9.753 and 8.496 and 8.018
hTA1 C178S; M = -7.522
  C178S - Normalized Luminescence Counts (N=2): 0.763 and 0.4359 and 0.01533 and 0.9572 and 2.124 and 0.4486
hTA1 C178S; M = -8
  C178S - Normalized Luminescence Counts (N=2): -0.8725 and -0.6389 and -0.8258 and 3.769 and 2.842 and 2.124
hTA1 C178S; M = -8.522
  C178S - Normalized Luminescence Counts (N=2): -0.6389 and -1.6202 and -1.667 and 1.376 and 0.02978 and -2.184
hTA1 C178S; M = -9
  C178S - Normalized Luminescence Counts (N=2): -0.5921 and -1.854 and -1.48 and 0.05969 and 0.9871 and -1.316
hTA1 C178S; M = -9.522
  C178S - Normalized Luminescence Counts (N=2): -1.293 and -1.48 and -0.6389 and -0.03006 and -0.3591 and -0.4489
hTA1 C178S; M = -10
  C178S - Normalized Luminescence Counts (N=2): -0.2183 and -0.5454 and -0.966 and -0.5087 and 0.4187 and -1.556
hTA1 C178S; M = -10.522
  C178S - Normalized Luminescence Counts (N=2): -0.7791 and -0.8258 and -0.8725 and -0.2993 and -0.5386 and -2.962
hTA1 C178S; M = -11
  C178S - Normalized Luminescence Counts (N=2): -1.433 and -0.8258 and -0.4987 and 1.047 and 0.4785 and -0.2993
hTA1 C178S; M = -11.522
  C178S - Normalized Luminescence Counts (N=2): -1.293 and -0.6389 and -1.059 and 2.124 and 1.1367 and -0.9276
hTA1 C178S; M = -12
  C178S - Normalized Luminescence Counts (N=2): -0.1249 and -0.6856 and 0.06206 and -0.2096 and -0.5386 and -1.227
hTA1 C178S; M = -12.522
  C178S - Normalized Luminescence Counts (N=2): -0.7323 and -0.7791 and -0.8725 and 0.2691 and -0.419 and 0.299
